Measurements: US20260374766A1, “METHODS FOR TREATING CANCER” (Antares Therapeutics, Inc., priority 2022, published 2026)

Tests used:
p53 Y220C = p53 Y220C (Homo sapiens, UniProt P04637, Y220C); test: Luciferase Reporter Assay (Luc), p53 response element, NClH1299 cells with inducible p53 Y220C; assay type: cell-based; conditions: luciferase reporter, NClH1299 inducible p53 Y220C, 6 hour; for Emax: 10 uM tool compound as positive control; for AC50: read-out: Luc P53 Y220C AC50
Procedure, shortened: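 24 h dox pre-induction (0.5 ug/mL), then 6 h compound; One-Glo luminescent read.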

NUGC3 p53 Y220C = test: Cell Proliferation Assay (CellTiter-Glo, CTG), NUGC3 p53 Y220C; assay type: cell-based; conditions: Homo sapiens, NUGC-3, 120 h, CellTiter-Glo, NUGC3 p53 Y220C, 5 days
Procedure, shortened: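 Tet-One inducible p53 Y220C or R273H constructs were stably introduced into NCI-H1299 by lentiviral transduction; NUGC3 was used as is. Cells (250-500 per well) were exposed to compound for 5 days, then CellTiter-Glo was added for 10 min at room temperature and IC50 was calculated from luminescence.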

[1] = biological target: T1, p53 Y220C mutant protein (amino acid residues 94-293) (Homo sapiens, UniProt P04637, Y220C); test: Surface Plasmon Resonance (SPR) assay, Kd_kinetic; assay type: binding; conditions: SPR, kinetic KD, p53 Y220C; read-out: SPR P53 Y220C KD kinetic
T1 construct: p53 Y220C mutant protein (amino acid residues 94-293)
Procedure, shortened: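 Biacore 8K SPR; 16 or 20 °C; Tris 50 mM pH 7.5, NaCl 100 mM, DTT 1 mM, Brij35 0.01%, Tween-20 0.05%, DMSO 1%. Kd_kinetic by 1:1 fit.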

H1299 p53 R273H = test: Cell Proliferation Assay (CellTiter-Glo, CTG), H1299 p53 R273H (NClH1299-inducible p53 R273H); assay type: cell-based; conditions: Homo sapiens, NCI-H1299, 120 h, CellTiter-Glo, H1299 p53 R273H, 5 days
Procedure, shortened: (§1)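 NClH1299 lines stably transduced with Tet-inducible p53 Y220C or R273H, plus NUGC3, were treated with compound for 5 days at 250-500 cells/well. IC50 derived from CellTiter-Glo luminescent signal after 10 min room-temperature incubation.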

H1299 p53 Y220C = test: Cell Proliferation Assay (CellTiter-Glo, CTG), H1299 p53 Y220C (NClH1299-inducible p53 Y220C); assay type: cell-based; conditions: Homo sapiens, NCI-H1299, 120 h, CellTiter-Glo, H1299 p53 Y220C, 5 days
Procedure, shortened: as §1

[2] = biological target: T1, p53 Y220C mutant protein (amino acid residues 94-293); test: Thermal Shift Assay (TSA), dTM; assay type: binding; conditions: thermal shift; for ΔTm at 100 µM: 100 uM compound, read-out: TSA P53 Y220C dTM (100 uM)
Procedure, shortened: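 Differential scanning fluorimetry with Sypro Orange on 5 μM p53 Y220C residues 94-293, compound tested at 10 μM or 100 μM after 3 hours at 20 °C; buffer 20 mM HEPES, pH7.4, 100 mM NaCl, 1% DMSO.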

SMILES | Emax (p53 Y220C) [%] | AC50 (p53 Y220C) [µM] | Kd [1] [µM] | IC50 (H1299 p53 R273H) [µM] | IC50 (H1299 p53 Y220C) [µM] | ΔTm at 100 µM [2] [°C] | ΔTm at 10 µM ([2]; 10 uM compound, read-out: TSA P53 Y220C dTM (10 uM)) [°C] | IC50 (NUGC3 p53 Y220C) [µM]
CNC(=O)c1ccc(NCC#Cc2nc3c(N[C@@H]4CCN(C)C[C@@H]4F)cccn3c2CC(F)(F)F)c(OC(F)(F)F)c1 [Example 53, 4-{[3-(8-{[(3S,4R)-3-fluoro-1-methylpiperidin-4-yl]amino}-3-(2,2,2-trifluoroethyl)imidazo[1,2-a]pyridin-2-yl)prop-2-yn-1-yl]amino}-N-methyl-3-(trifluoromethoxy) benzamide] | 70 to 80 | > 3 | 0.01 to 0.1 | ≥ 10 | 1.5 to 3 | 5 to 10 | – | 1.5 to 3
CNC(=O)c1ccc(NCC#Cc2nc3c(N[C@@H]4CCN(C)C[C@@H]4F)cccn3c2CC(F)(F)F)c(C(F)(F)F)c1 [Example 54, 4-{[3-(8-{[(3S,4R)-3-fluoro-1-methylpiperidin-4-yl]amino}-3-(2,2,2-trifluoroethyl)imidazo[1,2-a]pyridin-2-yl)prop-2-yn-1-yl]amino}-N-methyl-3-(trifluoromethyl)benzamide] | 70 to 80 | > 3 | 0.01 to 0.1 | ≥ 10 | > 3 | ≥ 10 | – | > 3
CNC(=O)c1ccc(NCC#Cc2nc3c(N[C@@H]4CCN(C)C[C@@H]4F)cccn3c2CC(F)(F)F)c(C2CC2)c1 [Example 57, 3-cyclopropyl-4-{[3-(8-{[(3S,4R)-3-fluoro-1-methylpiperidin-4-yl]amino}-3-(2,2,2-trifluoroethyl)imidazo[1,2-a]pyridin-2-yl)prop-2-yn-1-yl]amino}-N-methylbenzamide] | 70 to 80 | > 3 | 0.01 to 0.1 | ≥ 10 | > 3 | ≥ 10 | – | > 3
CCOc1cc(C(=O)NC)ccc1NCC#Cc1nc2c(N[C@@H]3CCN(C)C[C@@H]3F)cccn2c1CC(F)(F)F [Example 59, 3-ethoxy-4-{[3-(8-{[(3S,4R)-3-fluoro-1-methylpiperidin-4-yl]amino}-3-(2,2,2-trifluoroethyl)imidazo[1,2-a]pyridin-2-yl)prop-2-yn-1-yl]amino}-N-methylbenzamide] | 70 to 80 | 1.5 to 3 | < 0.01 | ≥ 10 | 0.75 to 1.5 | 5 to 10 | – | 0.75 to 1.5
CNC(=O)c1ccc(NCC#Cc2nc3c(N[C@@H]4CCN(C)C[C@@H]4F)cccn3c2CC(F)(F)F)c(OC(F)F)c1 [Example 60, 3-(difluoromethoxy)-4-{[3-(8-{[(3S,4R)-3-fluoro-1-methylpiperidin-4-yl]amino}-3-(2,2,2-trifluoroethyl)imidazo[1,2-a]pyridin-2-yl)prop-2-yn-1-yl]amino}-N-methylbenzamide] | 70 to 80 | > 3 | < 0.01 | ≥ 10 | 1.5 to 3 | ≥ 10 | – | 1.5 to 3
CNC(=O)c1ccc(NCC#Cc2nc3c(N[C@@H]4CCN(C)C[C@@H]4F)cccn3c2CC(F)(F)F)c(OCCOC)c1 [Example 62, 4-{[3-(8-{[(3S,4R)-3-fluoro-1-methylpiperidin-4-yl]amino}-3-(2,2,2-trifluoroethyl)imidazo[1,2-a]pyridin-2-yl)prop-2-yn-1-yl]amino}-3-(2-methoxyethoxy)-N-methylbenzamide] | 70 to 80 | 0.75 to 1.5 | < 0.01 | ≥ 10 | 0.75 to 1.5 | ≥ 10 | – | 0.75 to 1.5
COc1cc(S(N)(=O)=O)ccc1NCC#Cc1nc2c(N[C@@H]3CCN(C)C[C@@H]3F)cccn2c1CC(F)(F)F [Example 63, 4-{[3-(8-{[(3S,4R)-3-fluoro-1-methylpiperidin-4-yl]amino}-3-(2,2,2-trifluoroethyl)imidazo[1,2-a]pyridin-2-yl)prop-2-yn-1-yl]amino}-3-methoxybenzenesulfonamide] | 70 to 80 | 1.5 to 3 | 0.01 to 0.1 | ≥ 10 | 0.75 to 1.5 | ≥ 10 | – | 0.75 to 1.5
COc1cc(S(=O)(=O)N(C)C)ccc1NCC#Cc1nc2c(N[C@@H]3CCN(C)C[C@@H]3F)cccn2c1CC(F)(F)F [Example 65, 4-{[3-(8-{[(3S,4R)-3-fluoro-1-methylpiperidin-4-yl]amino}-3-(2,2,2-trifluoroethyl)imidazo[1,2-a]pyridin-2-yl)prop-2-yn-1-yl]amino}-3-methoxy-N,N-dimethylbenzenesulfonamide] | 70 to 80 | < 0.75 | 0.01 to 0.1 | 5 to 8 | 0.75 to 1.5 | ≥ 10 | – | 0.75 to 1.5

Second part, led by results:

Emax (p53 Y220C) [%] | AC50 (p53 Y220C) [µM] | Kd [1] [µM] | IC50 (H1299 p53 R273H) [µM] | IC50 (H1299 p53 Y220C) [µM] | ΔTm at 100 µM [2] [°C] | ΔTm at 10 µM ([2]; 10 uM compound, read-out: TSA P53 Y220C dTM (10 uM)) [°C] | SMILES | IC50 (NUGC3 p53 Y220C) [µM]
70 to 80 | > 3 | 0.01 to 0.1 | ≥ 10 | 1.5 to 3 | 5 to 10 | – | CNC(=O)c1ccc(NCC#Cc2nc3c(N[C@@H]4CCN(C)C[C@@H]4F)cccn3c2CC(F)(F)F)cn1 [Example 52, 5-{[3-(8-{[(3S,4R)-3-fluoro-1-methylpiperidin-4-yl]amino}-3-(2,2,2-trifluoroethyl)imidazo[1,2-a]pyridin-2-yl)prop-2-yn-1-yl]amino}-N-methylpyridine-2-carboxamide] | > 3
> 90 | 0.75 to 1.5 | 0.01 to 0.1 | ≥ 10 | 0.75 to 1.5 | ≥ 10 | – | CNC(=O)c1ccc(NCC#Cc2nc3c(N[C@@H]4CCN(C)C[C@@H]4F)cccn3c2CC(F)(F)F)c(Cl)c1 [Example 55, 3-chloro-4-{[3-(8-{[(3S,4R)-3-fluoro-1-methylpiperidin-4-yl]amino}-3-(2,2,2-trifluoroethyl)imidazo[1,2-a]pyridin-2-yl)prop-2-yn-1-yl]amino}-N-methylbenzamide] | 0.75 to 1.5
80 to 90 | > 3 | 0.01 to 0.1 | ≥ 10 | > 3 | ≥ 10 | – | CNC(=O)c1ccc(NCC#Cc2nc3c(N[C@@H]4CCN(C)C[C@@H]4F)cccn3c2CC(F)(F)F)c(C#N)c1 [Example 56, 3-cyano-4-{[3-(8-{[(3S,4R)-3-fluoro-1-methylpiperidin-4-yl]amino}-3-(2,2,2-trifluoroethyl)imidazo[1,2-a]pyridin-2-yl)prop-2-yn-1-yl]amino}-N-methylbenzamide] | > 3
70 to 80 | > 3 | < 0.01 | ≥ 10 | > 3 | 5 to 10 | – | CCc1cc(C(=O)NC)ccc1NCC#Cc1nc2c(N[C@@H]3CCN(C)C[C@@H]3F)cccn2c1CC(F)(F)F [Example 58, 3-ethyl-4-{[3-(8-{[(3S,4R)-3-fluoro-1-methylpiperidin-4-yl]amino}-3-(2,2,2-trifluoroethyl)imidazo[1,2-a]pyridin-2-yl)prop-2-yn-1-yl]amino}-N-methylbenzamide] | > 3
80 to 90 | 0.75 to 1.5 | 0.01 to 0.1 | ≥ 10 | < 0.75 | 5 to 10 | – | CNC(=O)c1ccc(NCC#Cc2nc3c(N[C@@H]4CCN(C)C[C@@H]4F)cccn3c2CC(F)(F)F)c(OCC(F)(F)F)c1 [Example 61, 4-{[3-(8-{[(3S,4R)-3-fluoro-1-methylpiperidin-4-yl]amino}-3-(2,2,2-trifluoroethyl)imidazo[1,2-a]pyridin-2-yl)prop-2-yn-1-yl]amino}-N-methyl-3-(2,2,2-trifluoroethoxy)benzamide] | 0.75 to 1.5
70 to 80 | 0.75 to 1.5 | < 0.01 | 8 to 10 | < 0.75 | ≥ 10 | ≥ 10 | CNS(=O)(=O)c1ccc(NCC#Cc2nc3c(N[C@@H]4CCN(C)C[C@@H]4F)cccn3c2CC(F)(F)F)c(OC)c1 [Example 64, 4-{[3-(8-{[(3S,4R)-3-fluoro-1-methylpiperidin-4-yl]amino}-3-(2,2,2-trifluoroethyl)imidazo[1,2-a]pyridin-2-yl)prop-2-yn-1-yl]amino}-3-methoxy-N-methylbenzenesulfonamide] | < 0.75
